Measured values from PubChem BioAssay AID330 (DTP/NCI, 2004).
Where “and” joins values, the source holds several entries; their conditions need not be identical. Equal entries are not always repeated. Inconclusive results and toxic doses are left out. Rule for the calls: active = survival T/C of 150% or more; inactive = T/C below 125% in these data.

Test system: P388 leukemia ip, CD2F1 mice, survival T/C
Experiment: NCI In Vivo Anticancer Drug Screen. Data for tumor model P388 Leukemia (intraperitoneal) in CD2F1 (CDF1) mice
Conditions: endpoint: median survival time, higher = longer survival
Outline: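 Mice carrying the transplanted tumor received test compound or vehicle. Survival was recorded in each group, and the value is the treated-group measurement divided by that of the vehicle-treated control group.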

[1] = dose: 100.0 mg/kg/injection, schedule: Q01DX009 (ip), vehicle: saline with Tween-80
[2] = dose: 100.0 mg/kg/injection, schedule: Q04DX003 (ip), vehicle: saline with Tween-80
[3] = dose: 200.0 mg/kg/injection, schedule: Q01DX009 (ip), vehicle: saline with Tween-80
[4] = dose: 200.0 mg/kg/injection, schedule: Q04DX003 (ip), vehicle: saline with Tween-80
[5] = dose: 12.5 mg/kg/injection, schedule: Q01DX009 (ip), vehicle: saline with Tween-80
[6] = dose: 25.0 mg/kg/injection, schedule: Q01DX009 (ip), vehicle: saline with Tween-80
[7] = dose: 50.0 mg/kg/injection, schedule: Q01DX009 (ip), vehicle: saline with Tween-80
[8] = dose: 50.0 mg/kg/injection, schedule: Q01DX005 (ip), vehicle: saline with Tween-80
[9] = dose: 100.0 mg/kg/injection, schedule: Q01DX005 (ip), vehicle: saline with Tween-80
[10] = dose: 200.0 mg/kg/injection, schedule: Q01DX005 (ip), vehicle: saline with Tween-80

Measured: T/C

CCCCN1CCC2(C)c3cc(O)ccc3CC1C2CC (stereo unspecified)
inactive: dose: 7.5 mg/kg/injection, schedule: Q01DX005 (ip), vehicle: Klucel (hydroxypropylcellulose) (HPC) 101 % of control | dose: 15.0 mg/kg/injection, schedule: Q01DX005 (ip), vehicle: Klucel (hydroxypropylcellulose) (HPC) 100 % of control | dose: 30.0 mg/kg/injection, schedule: Q01DX005 (ip), vehicle: Klucel (hydroxypropylcellulose) (HPC) 97 % of control

CCOC(=O)C(=Cc1c[nH]c2ccc(Br)cc12)C(=O)OCC
inactive: [1] 104 % of control | [2] 109 % of control | [3] 87 % of control | [4] 109 % of control | dose: 400.0 mg/kg/injection, schedule: Q01DX009 (ip), vehicle: saline with Tween-80 100 % of control | dose: 400.0 mg/kg/injection, schedule: Q04DX003 (ip), vehicle: saline with Tween-80 100 % of control

NC(CS(=O)c1ccc(Cl)cc1)C(=O)O (stereo unspecified)
inactive: dose: 6.25 mg/kg/injection, schedule: Q01DX009 (ip), vehicle: saline with Tween-80 95 % of control | [5] 95 % of control | [6] 100 % of control

CCOCC1COc2c(cc3[nH]cc(C(=O)O)c(=O)c3c2Cl)O1 (stereo unspecified)
inactive: [7] 95 % of control | [1] 93 % of control | [3] 95 % of control

OC1COC(O)(CN2CCOCC2)C(O)C1O (stereo unspecified)
inactive: [8] 100 % of control | [9] 98 % of control | [10] 97 % of control

CN1C(=NCCO)NS(=O)(=O)c2ccccc21
inactive: [8] 98 % of control | [9] 100 % of control | [10] 104 % of control

CC1(C)N=C(N)N=C(N)N1c1cccc(C(=O)O)c1
inactive: dose: 25.0 mg/kg/injection, schedule: Q01DX005 (ip), vehicle: Klucel (hydroxypropylcellulose) (HPC) 117 % of control | dose: 50.0 mg/kg/injection, schedule: Q01DX005 (ip), vehicle: Klucel (hydroxypropylcellulose) (HPC) 100 % of control | dose: 100.0 mg/kg/injection, schedule: Q01DX005 (ip), vehicle: Klucel (hydroxypropylcellulose) (HPC) 107 % of control

CCOC(=O)CNC(=O)OCCS(=O)CCOC(=O)NCC(=O)OCC
inactive: dose: 100.0 mg/kg/injection, schedule: Q01DX001 (ip), vehicle: saline 98 % of control | dose: 200.0 mg/kg/injection, schedule: Q01DX001 (ip), vehicle: saline 93 % of control | dose: 400.0 mg/kg/injection, schedule: Q01DX001 (ip), vehicle: saline 101 % of control

O=C1NNC(c2ccccc2)C1(Cl)Cl (stereo unspecified)
inactive: [5] 101 % of control | [7] 99 % of control

CNC1=C(C(=O)c2ccccc2)CCC1
inactive: dose: 6.25 mg/kg/injection, schedule: Q01DX009 (ip), vehicle: saline 104 % of control | dose: 12.5 mg/kg/injection, schedule: Q01DX009 (ip), vehicle: saline 104 % of control | dose: 25.0 mg/kg/injection, schedule: Q01DX009 (ip), vehicle: saline 101 % of control | dose: 50.0 mg/kg/injection, schedule: Q01DX009 (ip), vehicle: saline 101 % of control | dose: 100.0 mg/kg/injection, schedule: Q01DX009 (ip), vehicle: saline 104 % of control and 87 % of control and 95 % of control | dose: 200.0 mg/kg/injection, schedule: Q01DX009 (ip), vehicle: saline 124 % of control and 90 % of control and 95 % of control

COc1ccc(CCN2C(=O)C(=O)N(c3ccc(Cl)c(Cl)c3)C2=O)cc1OC
inactive: dose: 50.0 mg/kg/injection, schedule: Q01DX009 (ip), vehicle: Klucel (hydroxypropylcellulose) (HPC) 102 % of control | dose: 100.0 mg/kg/injection, schedule: Q01DX009 (ip), vehicle: Klucel (hydroxypropylcellulose) (HPC) 97 % of control | dose: 200.0 mg/kg/injection, schedule: Q01DX009 (ip), vehicle: Klucel (hydroxypropylcellulose) (HPC) 103 % of control

O=[N+]([O-])CC(c1ccccc1)C(C[N+](=O)[O-])c1ccccc1 (stereo unspecified)
inactive: dose: 6.25 mg/kg/injection, schedule: Q01DX005 (ip), vehicle: saline with Tween-80 100 % of control | dose: 12.5 mg/kg/injection, schedule: Q01DX005 (ip), vehicle: saline with Tween-80 87 % of control | dose: 25.0 mg/kg/injection, schedule: Q01DX005 (ip), vehicle: saline with Tween-80 95 % of control | [8] 91 % of control | [9] 91 % of control and 86 % of control

Oc1ccc2ccccc2c1N=Nc1nn[nH]n1
inactive: [8] 99 % of control | [9] 106 % of control

[N-]=[N+]=NC(=O)c1ccccn1
inactive: [6] 101 % of control | [7] 113 % of control | [1] 120 % of control

C=CC1(C)OC(=NC(C)(C)CO)c2cc(C)c(OC)cc21 (stereo unspecified)
inactive: [8] 98 % of control | [9] 97 % of control

O=[N+]([O-])c1ccc(N/N=C(\C(=N/Nc2ccc([N+](=O)[O-])cc2[N+](=O)[O-])c2ccccc2)c2ccccc2)c([N+](=O)[O-])c1
inactive: dose: 50.0 mg/kg/injection, schedule: Q04DX003 (ip), vehicle: saline with Tween-80 103 % of control | [2] 91 % of control | [4] 91 % of control

Cc1ccccc1-n1c(-c2ccccc2)cs/c1=N\N=C1/CSC(=O)N1Cc1ccccc1
inactive: dose: 100.0 mg/kg/injection, schedule: Q01DX001 (ip), vehicle: Klucel (hydroxypropylcellulose) (HPC) 107 % of control | dose: 200.0 mg/kg/injection, schedule: Q01DX001 (ip), vehicle: Klucel (hydroxypropylcellulose) (HPC) 104 % of control | dose: 400.0 mg/kg/injection, schedule: Q01DX001 (ip), vehicle: Klucel (hydroxypropylcellulose) (HPC) 89 % of control
